Laboratory results from patent US20210187014A1 (The Regents of the University of Colorado, a body corporate, priority 2018, published 2021).

Columns and labels:
ATP5A1 = biological target: T1, ATP5A1 (Homo sapiens, UniProt P25705); experiment: Biotin-Ent binding to ATP5A1 (pulldown from HEK293T cells and in vitro binding assay); details: excess, free Ent
T1 construct: His
Source text: Sequence alignment indicates 78% identity between the ATP synthase a-subunits from C. elegans (ATP-1, Wormbase; SEQ ID NO. 7) and humans (ATP5A1, NCBI; SEQ ID NO. 8) (FIG. 11D). […] To test if this Ent-ATP-1 function is conserved in mammals, the present inventors repeated the prior described biotin-Ent pulldown assay (FIG. 3A) using total protein extracts from human HEK293T cells cultured +/− Biotin-Ent.
In vitro binding assay. (a) Ent-biotin pull-down of total proteins: Ent-biotin and streptavidin beads were used to pull down interacting proteins from worm total protein extracts (same method as that in initial screen for Ent-binding proteins). Western blots were performed to detect ATP-1 (Thermo Fisher 43-9800). […] The assay was then quenched with a standard 5×SDS-PAGE_loading buffer (reducing). Proteins were separated by SDS-PAGE and transferred to_nitrocellulose membranes. The membranes were blocked for 1 h with 5% BSA in Trisbuffered saline (TBS) with 0.1% Tween 20 (TBST) at room temperature, followed by incubation for 1 h with horseradish peroxidase streptavidin (Cell Signaling_Technology,3999S) in TBST. After four washes with changes every 15 min in TBST, the_biotinylated proteins were visualized by enhanced chemiluminescence (GE Healthcare,_RPN2232). […] After IP, the amount of 55Fe was determined by liquid scintillation.

[1] = tested on: anemic mouse model (dietary anemia); experiment: Anemic mouse model (dietary anemia), Ent by oral gavage; assay type: in vivo; details: female mice on iron-deficient diet
Source text: The inventors fed 3-week old female mice an iron-deficient diet (IDD) (or control diet) for 6 weeks to induce anemia (confirmed by hemoglobin measurement). […] As generally shown in FIGS. 20A-B, feeding IDD caused a drastic reduction of both hemoglobin and iron levels. […] A commercial kit (BioAssay system) was used to obtain hemoglobin level. Under normal conditions, ˜70% of the iron absorbed from the intestine is used to generate hemoglobin, and only a small percent may be stored in the liver or other somatic tissues if iron is in excess. Under anemic conditions, a great percentage of iron that has entered mitochondria (then bound to heme) may be funneled to erythropoiesis. Therefore, it was not unexpected to see little impact of Ent supplementation on liver iron level (iron storage).

C. elegans = C. elegans larval growth assay: heat-killed E. coli plus trace live E. coli, worm volume; assay type: in vivo; details: for worm growth with dietary supplementation: worms fed heat-killed E. coli plus live entA- or entF- mutant E. coli (Ent-deficient food)
Source text: In one embodiment of the inventive technology, the present inventors created a unique assay to facilitate the identification of microbial metabolites that benefit growth and development of host animals. […] This unique feeding condition was used to search for E. coli mutants that fail to support normal worm growth, potentially due to their inability to provide specific metabolites to benefit host animals.
E. coli Keio collection screen. Preparation of heat-killed (HK) OP50 plates followed the procedure described previously (Qi et al., 2017). Standard overnight culture of E. coli OP50 grown in LB broth was concentrated to 1/10 vol and was then heat-killed in a 75° C. water bath for 90 min. The 150 µl of the HK-OP50 was spread onto one side of NGM plate. For preparation of bacterial mutant assay plates, E. coli Keio (Baba et al., 2006) mutants were grown overnight at 37° C. in LB medium with […] kanamycin. 0.2 uL of the bacterial culture (OD600) were seeded to the other side of HK OP50 plate. About 300 synchronized L1 worms were added to the screen plate, and cultured at 20° C., then scored for worm size at day 3 and day 4. The entire library was used for the primary screen; each bacterial mutant was screened once. For the secondary screen, 200 candidate mutants were screened (3 replicates) to confirm the slow growth phenotype.
Chemical supplementation of culture plates. For chemical supplementation, each chemical was dissolved in water or DMSO to generate a stock. The stock solution was added to HK OP50 and then spotted onto NGM plates. […] For CaEDTA supplementation (Kiang et al., 2014), 50 ul of CaEDTA (50 ug/ul) was spread onto the center of the NGM plates seeded with OP50, then different volume of the FeCl3[175 ug/ul] […] Bacterial growth analyses. Overnight cultures were diluted to a final OD600=0.01 in 200 μL of NGM liquid medium. Bacteria were grown in 96-well plates with shaking in a Synergy2 plate reader (BioTek) at 37° C. for 17 h. The OD600 was recorded at 20 min intervals.
Analysis of larval growth by measuring worm size. Synchronized L1 worms were seeded on the indicated NGM plate and grew to the indicated times. Photos were taken and worms volume in each photo were measured by WormSizer software (Moore et al., 2013).

germ-free (GF) mice = experiment: Growth of germ-free mice colonized with entF- E. coli, Ent in drinking water; assay type: in vivo; details: GF female mice colonized with entF- E. coli, drinking water pH 5.5
Experimental: As generally shown in FIG. 23, (A) Five-week old female germ-free (GF) mice were colonized with a single non-pathogenic E. coli (K12) strain, wild type or entF-(Ent-deficient E. coli). Mouse growth (weight gain) was measured for the following 4 weeks. […] Iron level was measured.

[2] = tested on: anemic mouse model (dietary anemia); experiment: Anemic mouse model (dietary anemia), Ent in drinking water; assay type: in vivo; details: male mice on iron-deficient diet, two weeks
Experimental: The inventors fed 3-week old male mice an iron-deficient diet (IDD) (or control diet) for 5 weeks to induce anemia. They were then fed IDD +/− Ent added to the drinking water for two more weeks. Fresh dilutions of Ent in water were provided once per week. As generally shown in FIG. 21, mice continuously fed the iron-adequate control diet (CD) were included as the control. Hemoglobin level was measured by a Hemavet Blood Analyzer. Mean value±SD is shown.

mice = experiment: Growth of mice fed control (iron-adequate) diet, Ent in drinking water; assay type: in vivo; details: male mice, drinking water pH 5.5
Source text: The present inventors treated 4.5-week male mice with the iron-adequate control diet (CD) described above, the matched control for the iron-deficient diet (IDD). As shown above in FIGS. 20 and 21, mice fed this diet had relative normal hemoglobin and iron levels. […] This experiment was incomplete because the hemoglobin and iron levels were not measured, which will be repeated.

T1 sequence (P25705 44-553): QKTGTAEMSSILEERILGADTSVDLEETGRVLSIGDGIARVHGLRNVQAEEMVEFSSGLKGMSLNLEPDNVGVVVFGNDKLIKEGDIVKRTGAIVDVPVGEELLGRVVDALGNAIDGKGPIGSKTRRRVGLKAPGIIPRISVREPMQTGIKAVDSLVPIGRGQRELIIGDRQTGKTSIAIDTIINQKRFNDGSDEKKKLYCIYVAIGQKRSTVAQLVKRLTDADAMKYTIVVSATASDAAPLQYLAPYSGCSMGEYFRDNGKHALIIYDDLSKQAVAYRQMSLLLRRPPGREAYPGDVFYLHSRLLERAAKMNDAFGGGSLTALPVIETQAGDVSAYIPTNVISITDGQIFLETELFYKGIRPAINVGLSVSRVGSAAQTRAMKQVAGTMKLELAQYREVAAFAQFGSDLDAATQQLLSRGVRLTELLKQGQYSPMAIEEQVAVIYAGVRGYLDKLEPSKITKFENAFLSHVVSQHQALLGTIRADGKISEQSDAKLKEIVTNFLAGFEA

## O=C(N[C@H]1COC(=O)[C@@H](NC(=O)c2cccc(O)c2O)COC(=O)[C@@H](NC(=O)c2cccc(O)c2O)COC1=O)c1cccc(O)c1O [Ent, enterobactin]
ATP5A1
  competition of biotin-Ent binding to ATP5A1: effectively competed away
[1]; oral gavage
  iron level in the spleen: increased in the spleen
[1]; oral gavage once every two days for two weeks
  hemoglobin level: partially but significantly recovered
C. elegans; RNAi of atp-1 (not ctl-2)
  rescue of worm growth by Ent supplementation: prevented the rescue of worm growth
C. elegans; ferric chloride added to live wild-type E. coli, with heat-killed E. coli
  worm growth: this growth defect was suppressed
C. elegans
  worm growth with dietary supplementation: completely overcome
C. elegans; listed as Enterobactin
  worm growth with dietary supplementation: recovers the growth defect seen with entF-
C. elegans; worms fed only heat-killed bacteria
  development of worms: did not result in any appreciable effect
germ-free (GF) mice
  growth (weight gain): overcomes growth delay
[2]
  hemoglobin level: significantly improved
mice
  growth rate (weight gain): increased growth rate
